{"source": "patent US20250228861A1", "about": "“Cancer Treatments Using MTA-Cooperative PRMT5 Inhibitors” (AMGEN INC., priority 2022, published 2025)", "key": {"[1]": {"tested_on": "endogenous wild-type or MTAP-null cell lines", "experiment": "6-day viability in expanded panel of tumor cell lines", "type": "cell-based", "settings": "endogenous MTAP-null vs wild-type cell lines; 6-day CellTiter-Glo", "procedure": "FIG. 9. […] Top concentration of tested was 10 μM (1 uM for DLBCL lines) with a total of nine 1:3 serial dilution steps and DMSO-only control. […] (mean±SD, n=3)."}, "[2]": {"tested_on": "endogenous MTAP-null patient derived xenograft models", "experiment": "MTAP-null patient derived xenograft (PDX) models, tumor growth inhibition", "type": "in vivo, mice", "text": "Female NOD/SCID mice were implanted with PA5415 (pancreatic tumors) or ES11082 (esophageal tumors). […] Data represent group means±SEM, n=10. for each group.\nFor each model, 6 Female NOD/SCID mice were implanted with PDX. Mean tumor volumes for each grouping were between 100-200 mm^3.\n6 Female NOD/SCID mice were implanted with patient-derived tumor xenograft (PDX) models of pancreatic ovarian, esophageal, melanoma, lung, brain, mixed mullerian or gallbladder cancer. Mean tumor volumes for each grouping were between 100-200 mm^3."}, "[3]": {"tested_on": "HAP1- and HCT116 MTAP-null cells", "experiment": "6-day CellTiter-Glo viability in MTAP-null cells", "type": "cell-based", "settings": "144 h, 6 days, read-out: proliferation, IC50", "procedure": "(§1) FIG. 1. […] Viability was measured by CellTiter-Glo and cooperativity was determined as follows: Cooperativity=WT IC50/MTAP-null IC50.\nPlated cells were at optimized cell density in 96-well black walled, clear bottom tissue culture plates in 90 μL of growth media. Cells were incubated at room temperature for 30 minutes prior to placing in incubator at 37° C. and 5% CO2 overnight. […] Secondary compound dilutions (1:100) in media were done in the 96-well V-Bottom plate by adding 3 μL of the primary dilution to 297 μL of culture media. Finally, 10 μL from the secondary compound dilutions were added to cells in triplicate (1:10 dilution; final DMSO concentration 0.1%). Once addition was complete, plates were incubated at 37° C. and 5% CO2. […] Percent of Control (POC) values were calculated as follows: POC=100*(Treatment/Vehicle). Mean POC values were then calculated for each treatment condition and used to fit dose response curves applying a four parameter logistic curve in GraphPad Prism 7."}, "[4]": {"tested_on": "HCT116 MTAP-null tumor xenografts", "settings": "mouse, in vivo, po", "procedure": "FIG. 2: ELISA analysis of HCT116 MTAP WT and HCT116 MTAP-null contralateral tumor cells. […] Percentage of inhibition reported relative to matched vehicle. Data represent mean±SD, n=3 for each group.\nFemale Athymic Nude mice were implanted with HCT116 MTAP-null or MTAP WT tumors. […] Data represents group means±SEM, n=10. […] STATS: P values were determined by Linear Mixed-Effects Model with a Dunnett's comparison to control."}, "[5]": {"tested_on": "HAP1- and HCT116 MTAP-null cells", "experiment": "Global SDMA levels (ELISA / in-cell imaging) in MTAP-null cells", "type": "cell-based", "settings": "HAP1 ELISA 3 days, HCT116 in-cell imaging 4 days", "procedure": "as §1\nHAP1 WT and MTAP-null global SDMA levels were assessed by an ELISA assay after 3 days treatment.\n(§2) HCT116 WT and MTAP-null global SDMA levels were assessed by an in-cell imaging assay after 4 days treatment."}, "HCT116 MTAP-WT cells": {"tested_on": "HCT116 MTAP-WT cells", "experiment": "Global SDMA levels (in-cell imaging) in MTAP-WT cells", "type": "cell-based", "settings": "Homo sapiens, HCT-116, 96 h, 4 days", "procedure": "as §1, §2"}, "PSN1 cells [6]": {"tested_on": "PSN1 cells", "experiment": "Combination with carboplatin, CellTiter-Glo viability, Fa and CalcuSyn CI", "settings": "Compound B 0.0384 μM fixed + Carboplatin 3 μM, 6 days", "protocol": "(§3) Cell viability was measured by the CellTiter-Glo Luminescence assay. Raw luminescent values were converted to fraction affected (Fa) with the following equation:\n(§4) Synergy analysis was performed using the CalcuSyn software to determine CI scores based on the drug concentrations used and corresponding Fa values."}, "[7]": {"tested_on": "BXPC-3 endogenous MTAP-null xenografts", "experiment": "BxPC-3 xenografts", "type": "in vivo", "settings": "BxPC-3 xenografts in SCID mice; p.o. once a day", "text": "FIG. 10. […] Data represent group means±SEM, n=10. […] Data represent mean±SD, n=5 for each group."}, "[8]": {"tested_on": "DOHH-2 endogenous MTAP-null xenografts", "settings": "mouse, in vivo, po", "procedure": "FIG. 10. […] Female SCID mice were implanted with DOHH-2 or BxPC-3 tumors. […] Data represent group means±SEM, n=10. Terminal DOHH-2 or BxPC-3 tumors were collected for SDMA ELISA analysis. Data represent mean±SD, n=5 for each group. STATS: P values were determined by Linear Mixed-Effects Model with a Dunnett's comparison to control; **p<0.01, ****p<0.0001.\nFIG. 11. […] (A-D.) Female SCID mice were implanted with DOHH-2 tumors. […] Mice were dosed orally (p.o.) once a day for ten days. Data represent group means±SEM, n=10. A.) Terminal DOHH-2 tumor volumes. […] C.) Disaggregated tumors were stained for γH2AX, MFI (mean florescent intensity). D.) Cardiac bleeds were performed and analyzed on ADVIA."}, "PSN1 cells [9]": {"tested_on": "PSN1 cells", "settings": "6 days", "protocol": "as §3, §4"}, "MIAPACA2T2 cells": {"tested_on": "MIAPACA2T2 cells", "settings": "6 days", "protocol": "as §3, §4"}, "[10]": {"settings": "Compound G 0.0213 μM fixed + 5-FU 0.357628 μM"}, "[11]": {"settings": "Compound G 0.0213 μM fixed + 5-FU 0.572205 μM"}, "[12]": {"settings": "Compound G 0.0213 μM fixed + 5-FU 0.915527 μM"}, "[13]": {"settings": "Compound G 0.0213 μM fixed + 5-FU 1.46484 μM"}, "[14]": {"settings": "Compound G 0.0213 μM fixed + 5-FU 2.34375 μM"}, "[15]": {"settings": "Compound G 0.0213 μM fixed + 5-FU 3.75 μM"}, "[16]": {"settings": "Compound G 0.0213 μM fixed + 5-FU 6 μM"}, "[17]": {"settings": "Compound G 0.83102 μM fixed + 5-FU 0.664052 μM"}, "[18]": {"settings": "Compound G 0.83102 μM fixed + 5-FU 0.929672 μM"}, "[19]": {"settings": "Compound G 0.83102 μM fixed + 5-FU 1.30154 μM"}, "[20]": {"settings": "Compound G 0.83102 μM fixed + 5-FU 1.82216 μM"}, "[21]": {"settings": "Compound G 0.83102 μM fixed + 5-FU 2.55102 μM"}, "[22]": {"settings": "Compound G 0.83102 μM fixed + 5-FU 3.57143 μM"}, "[23]": {"settings": "Compound G 0.83102 μM fixed + 5-FU 5 μM"}}, "note": "“Also recorded” adds a separate entry of the source. Where two headings read alike, the source gives them in different places.", "data": [{"smiles": "Cc1cc2cc(C(=O)N(Cc3ccc(C(F)(F)F)cn3)[C@@H](C)c3ncccn3)ccc2nc1N", "note": "[Compound B]", "values": [{"measurement": "proliferation / viability in expanded panel of tumor cell lines", "setting": "[1]", "value": "inhibited the proliferation of most MTAP-null cells, with minimal effects on MTAP-WT cells; also recorded: preferential activity in endogenous MTAP-null tumor cell lines; also recorded: preferentially inhibits cell viability in endogenous MTAP-null vs. wildtype"}, {"measurement": "tumor growth inhibition (TGI)", "setting": "[2]; 100 mg/kg orally once daily, majority of PDX models harboring deletion of the MTAP gene, panel of over twenty PDX models", "value": "greater than 50%"}, {"measurement": "anti-tumor growth inhibition", "setting": "[2]; PA5415 pancreatic and ES11082 esophageal PDX, p.o. once a day", "value": "significant anti-tumor growth inhibition"}, {"measurement": "IC50", "setting": "[3]", "value": 27, "unit": "nM"}, {"measurement": "SDMA and tumor growth in xenografts", "setting": "[4]", "value": "selectively inhibits SDMA and tumor growth"}, {"measurement": "IC50", "setting": "[5]", "value": 0.2, "unit": "nM"}, {"measurement": "IC50", "setting": "HCT116 MTAP-WT cells", "value": 50, "unit": "nM"}, {"measurement": "Computed CI value", "setting": "PSN1 cells [6]", "value": 0.547}, {"measurement": "anti-tumor activity", "setting": "[7]", "value": "significant anti-tumor activity"}, {"measurement": "anti-tumor activity", "setting": "[8]", "value": "significant anti-tumor activity"}, {"measurement": "DNA damage response in tumors (γH2AX)", "setting": "[8]; 100 mg/kg", "value": "increase in the DNA damage response"}, {"measurement": "cell cycle in tumors (BrdU/DAPI flow cytometry)", "setting": "[8]; 100 mg/kg", "value": "cell cycle arrest"}]}, {"smiles": "Nc1nc2cnc(C(=O)N3CCOC[C@@H]3c3ccc(C(F)(F)F)cc3)cc2c2c1COC2", "note": "[Compound G]", "values": [{"measurement": "Combination Fa", "setting": "PSN1 cells [9]; [10]", "value": 0.3}, {"measurement": "Computed CI value", "setting": "PSN1 cells [9]; [10]", "value": 1.422}, {"measurement": "Combination Fa", "setting": "PSN1 cells [9]; [11]", "value": 0.416}, {"measurement": "Computed CI value", "setting": "PSN1 cells [9]; [11]", "value": 1.404}, {"measurement": "Combination Fa", "setting": "PSN1 cells [9]; [12]", "value": 0.669}, {"measurement": "Computed CI value", "setting": "PSN1 cells [9]; [12]", "value": 1.055}, {"measurement": "Combination Fa", "setting": "PSN1 cells [9]; [13]", "value": 0.74}, {"measurement": "Computed CI value", "setting": "PSN1 cells [9]; [13]", "value": 1.282}, {"measurement": "Combination Fa", "setting": "PSN1 cells [9]; [14]", "value": 0.789}, {"measurement": "Computed CI value", "setting": "PSN1 cells [9]; [14]", "value": 1.668}, {"measurement": "Combination Fa", "setting": "PSN1 cells [9]; [15]", "value": 0.836}, {"measurement": "Computed CI value", "setting": "PSN1 cells [9]; [15]", "value": 2.158}, {"measurement": "Combination Fa", "setting": "PSN1 cells [9]; [16]", "value": 0.869}, {"measurement": "Computed CI value", "setting": "PSN1 cells [9]; [16]", "value": 2.903}, {"measurement": "Combination Fa", "setting": "MIAPACA2T2 cells; [17]", "value": 0.7114}, {"measurement": "Computed CI value", "setting": "MIAPACA2T2 cells; [17]", "value": 0.445}, {"measurement": "Combination Fa", "setting": "MIAPACA2T2 cells; [18]", "value": 0.7511}, {"measurement": "Computed CI value", "setting": "MIAPACA2T2 cells; [18]", "value": 0.477}, {"measurement": "Combination Fa", "setting": "MIAPACA2T2 cells; [19]", "value": 0.8099}, {"measurement": "Computed CI value", "setting": "MIAPACA2T2 cells; [19]", "value": 0.482}, {"measurement": "Combination Fa", "setting": "MIAPACA2T2 cells; [20]", "value": 0.85}, {"measurement": "Computed CI value", "setting": "MIAPACA2T2 cells; [20]", "value": 0.529}, {"measurement": "Combination Fa", "setting": "MIAPACA2T2 cells; [21]", "value": 0.8941}, {"measurement": "Computed CI value", "setting": "MIAPACA2T2 cells; [21]", "value": 0.555}, {"measurement": "Combination Fa", "setting": "MIAPACA2T2 cells; [22]", "value": 0.9193}, {"measurement": "Computed CI value", "setting": "MIAPACA2T2 cells; [22]", "value": 0.632}, {"measurement": "Combination Fa", "setting": "MIAPACA2T2 cells; [23]", "value": 0.9246}, {"measurement": "Computed CI value", "setting": "MIAPACA2T2 cells; [23]", "value": 0.834}]}]}
